Assay results published in patent US10472352B2, “Rac inhibitors” (Geneyus LLC, priority 2017, dated 2019).

How the values were obtained:
Type in all cases: cell-based
[1] = test system: estrogen receptor response gene (SDF) in MCF7 breast cancer cells; assay: Inhibition of Estrogen Receptor Target Gene Transcription (SDF qPCR); conditions: MCF7, 10 nM estradiol, 4 hours; 1 uM fulvestrant; 5 or 10 uM 0032661
Procedure: After 4 hours, RNA was harvested and converted into cDNA. qPCR analysis for SDF was performed on all samples and normalized to expression of GAPDH. The data, shown in FIG. 7, is expressed as fold change relative to SDF expression of the cFBS sample.

[2] = test system: estrogen receptor response genes Cyclin D1 and pS2 in MCF7 breast cancer cells; assay: Inhibition of Estrogen Receptor Target Gene Protein Expression (immunoblot); conditions: MCF7, 10 nM E2, 18 hours; 1 uM fulvestrant; 5 or 10 uM 0032661
Procedure: After 18 hours, protein was harvested. SDS-PAGE followed by immunoblotting of samples was performed using standard techniques. Protein lysates were immunoblotted for Estrogen Receptor (ER), Cyclin D1, pS2, and Actin.

[3] = test system: BT474 breast cancer cells; assay: BT474 Four (4) Day Cell Viability Assay; conditions: BT474, 4 days, 32661 0 μM
Procedure: BT474 breast cancer cells that are Estrogen Receptor Positive and HER2+ were grown in 5% cFBS. 5,000 cells were seeded into each well of a 96-well plate and treated with escalating doses of lapatinib, fulvestrant, and 32661.

[4] = test system: PSA in LNCaP prostate cancer cells; assay: Inhibition of Increased Protein Levels of PSA (immunoblot); conditions: 10 nM DHT, 18 hours, 5 uM enzalutamide, 10, 15 or 20 uM 0032661
Procedure: After 18 hours protein was harvested. SDS-PAGE followed by immunoblotting of samples was performed using standard techniques. Protein lysates were immunoblotted for the Androgen Receptor (AR), PSA, and Actin.

Structure (SMILES): C[C@]12CC[C@@H]3c4ccc(O)cc4C[C@@H](CCCCCCCCC[S+]([O-])CCCC(F)(F)C(F)(F)F)[C@H]3[C@@H]1CC[C@@H]2O (some centres unmarked) [Fulvestrant, fulvestrant, reference compound]
- estrogen receptor target gene transcription (SDF) [1]: inhibit the estrogen receptor target gene transcription
- protein levels of estrogen receptor target genes (Cyclin D1, pS2) [2]: inhibit the increase in protein levels of estrogen receptor target genes
- cellular viability ([3]; fulvestrant 6.9 nM, lapatinib 0.0 nM): 94%
- cellular viability ([3]; fulvestrant 6.9 nM, lapatinib 6.9 nM): 96%
- cellular viability ([3]; fulvestrant 6.9 nM, lapatinib 20.6 nM): 96%
- cellular viability ([3]; fulvestrant 6.9 nM, lapatinib 61.7 nM): 87%
- cellular viability ([3]; fulvestrant 6.9 nM, lapatinib 185.2 nM): 85%
- cellular viability ([3]; fulvestrant 6.9 nM, lapatinib 555.6 nM): 79%
- cellular viability ([3]; fulvestrant 6.9 nM, lapatinib 1666.7 nM): 69%
- cellular viability ([3]; fulvestrant 6.9 nM, lapatinib 3333.0 nM): 51%
- cellular viability ([3]; fulvestrant 20.6 nM, lapatinib 0.0 nM): 94%
- cellular viability ([3]; fulvestrant 20.6 nM, lapatinib 6.9 nM): 88%
- cellular viability ([3]; fulvestrant 20.6 nM, lapatinib 20.6 nM): 88%
- cellular viability ([3]; fulvestrant 20.6 nM, lapatinib 61.7 nM): 83%
- cellular viability ([3]; fulvestrant 20.6 nM, lapatinib 185.2 nM): 82%
- cellular viability ([3]; fulvestrant 20.6 nM, lapatinib 555.6 nM): 78%
- cellular viability ([3]; fulvestrant 20.6 nM, lapatinib 1666.7 nM): 63%
- cellular viability ([3]; fulvestrant 20.6 nM, lapatinib 3333.0 nM): 47%
- cellular viability ([3]; fulvestrant 61.7 nM, lapatinib 0.0 nM): 91%
- cellular viability ([3]; fulvestrant 61.7 nM, lapatinib 6.9 nM): 89%
- cellular viability ([3]; fulvestrant 61.7 nM, lapatinib 20.6 nM): 89%
- cellular viability ([3]; fulvestrant 61.7 nM, lapatinib 61.7 nM): 90%
- cellular viability ([3]; fulvestrant 61.7 nM, lapatinib 185.2 nM): 88%
- cellular viability ([3]; fulvestrant 61.7 nM, lapatinib 555.6 nM): 77%
- cellular viability ([3]; fulvestrant 61.7 nM, lapatinib 1666.7 nM): 66%
- cellular viability ([3]; fulvestrant 61.7 nM, lapatinib 3333.0 nM): 34%
- cellular viability ([3]; fulvestrant 185.2 nM, lapatinib 0.0 nM): 94%
- cellular viability ([3]; fulvestrant 185.2 nM, lapatinib 6.9 nM): 91%
- cellular viability ([3]; fulvestrant 185.2 nM, lapatinib 20.6 nM): 91%
- cellular viability ([3]; fulvestrant 185.2 nM, lapatinib 61.7 nM): 91%
- cellular viability ([3]; fulvestrant 185.2 nM, lapatinib 185.2 nM): 88%
- cellular viability ([3]; fulvestrant 185.2 nM, lapatinib 555.6 nM): 74%
- cellular viability ([3]; fulvestrant 185.2 nM, lapatinib 1666.7 nM): 63%
- cellular viability ([3]; fulvestrant 185.2 nM, lapatinib 3333.0 nM): 36%
- cellular viability ([3]; fulvestrant 555.6 nM, lapatinib 0.0 nM): 87%
- cellular viability ([3]; fulvestrant 555.6 nM, lapatinib 6.9 nM): 90%
- cellular viability ([3]; fulvestrant 555.6 nM, lapatinib 20.6 nM): 90%
- cellular viability ([3]; fulvestrant 555.6 nM, lapatinib 61.7 nM): 88%
- cellular viability ([3]; fulvestrant 555.6 nM, lapatinib 185.2 nM): 82%
- cellular viability ([3]; fulvestrant 555.6 nM, lapatinib 555.6 nM): 74%
- cellular viability ([3]; fulvestrant 555.6 nM, lapatinib 1666.7 nM): 58%
- cellular viability ([3]; fulvestrant 555.6 nM, lapatinib 3333.0 nM): 26%
- cellular viability ([3]; fulvestrant 1666.7 nM, lapatinib 0.0 nM): 80%
- cellular viability ([3]; fulvestrant 1666.7 nM, lapatinib 6.9 nM): 79%
- cellular viability ([3]; fulvestrant 1666.7 nM, lapatinib 20.6 nM): 76%
- cellular viability ([3]; fulvestrant 1666.7 nM, lapatinib 61.7 nM): 75%
- cellular viability ([3]; fulvestrant 1666.7 nM, lapatinib 185.2 nM): 68%
- cellular viability ([3]; fulvestrant 1666.7 nM, lapatinib 555.6 nM): 65%
- cellular viability ([3]; fulvestrant 1666.7 nM, lapatinib 1666.7 nM): 47%
- cellular viability ([3]; fulvestrant 1666.7 nM, lapatinib 3333.0 nM): 15%
- cellular viability ([3]; fulvestrant 3333.0 nM, lapatinib 0.0 nM): 60%
- cellular viability ([3]; fulvestrant 3333.0 nM, lapatinib 6.9 nM): 53%
- cellular viability ([3]; fulvestrant 3333.0 nM, lapatinib 20.6 nM): 53%
- cellular viability ([3]; fulvestrant 3333.0 nM, lapatinib 61.7 nM): 26%
- cellular viability ([3]; fulvestrant 3333.0 nM, lapatinib 185.2 nM): 24%
- cellular viability ([3]; fulvestrant 3333.0 nM, lapatinib 555.6 nM): 32%
- cellular viability ([3]; fulvestrant 3333.0 nM, lapatinib 1666.7 nM): 20%
- cellular viability ([3]; fulvestrant 3333.0 nM, lapatinib 3333.0 nM): 4%

Structure (SMILES): CNC(=O)c1ccc(N2C(=S)N(c3ccc(C#N)c(C(F)(F)F)c3)C(=O)C2(C)C)cc1F [enzalutamide, reference compound]
- increase in protein levels of PSA [4]: inhibit the increase in protein levels of PSA
